This is an account of results in patent US11648239B2, “Azophenols as ERG oncogene inhibitors” (The Henry M. Jackson Foundation for the Advancement of …, priority 2015, dated 2023).

Type in all cases: cell-based
For one data set, the system named is AR. As to the kind of experiment: Inhibition of endogenous AR protein in LAPC-4 cells (Western blot). The following applies: ERG negative LAPC-4; 0.25 μM and 1 μM; FIG. 6. The protocol:
To investigate whether the azophenol compounds of the invention are selective inhibitors of ERG protein expression, representative azophenol compounds were further tested for its ability to inhibit AR and PSA activity in the following AR positive/ERG negative prostate cancer cell lines: LNCaP (mutant AR positive and ERG negative), as well as in LAPC4 cells that are AR (wild type) positive and ERG negative.
Inhibition of ERG protein expression by the test compounds were determined by Western blot analysis. The ERG specific monoclonal antibody CPDR ERG-MAb was used as the primary antibody. In brief, Western blot was performed by running a fixed amount of total protein extracted from cell lysates of the treated cells using (4-12% Bis-Tris) gel by electrophoresis, followed by transfer to membrane and incubation with primary antibody and continued with HRP-conjugated secondary antibody. Cultured cells were treated at specific dosages with each of the tested ERG inhibitors. Following incubation of the treated cells for an indicated time period, cells were lysed using Mammalian Protein Extraction Reagent (M-PER; Pierce, Rockford, Ill.) containing a protease inhibitor cocktail and phosphatase inhibitor cocktails I & III (Sigma, St Louis, Mo.). […]

The test system of another data set is LNCaP cells. As to the kind of experiment: LNCaP cell growth. The following applies: 0.25 μM and 1 μM, FIG. 5. As for the experimental part:
Approximately 48 hours following plating of cells, the appropriate test compound is added to each well of the tissue culture dish at a predetermined concentration. The medium was replenished every 24 hours with fresh growth medium containing the same concentration of the same test compound for indicated period of the cell growth inhibition assay. Percent cell growth inhibition was calculated using a hemocytometer for estimating cell density in each of the test wells of the tissue culture dish and trypan blue dye exclusion microscopy and photography to estimate the fraction of viable cells in each test well.

In data set [1] the target is T1, RIOK2 protein (Homo sapiens, UniProt Q9BVS4). The data set can be described thus: Inhibition of endogenous RIOK2 protein in COLO320 cells (Western blot). The note with it: 0.25 μM and 1 μM, FIG. 8.
Data set [2] has as its target T1, RIOK2 protein. As to the kind of experiment: Inhibition of RIOK2 protein in VCaP cells (Western blot). More on the design: host or cells: VCaP. The following applies: 0.1, 0.2, 0.4, 0.6, 0.8 and 1 μM; FIG. 14, 17.

T1 sequence (Q9BVS4 whole entry): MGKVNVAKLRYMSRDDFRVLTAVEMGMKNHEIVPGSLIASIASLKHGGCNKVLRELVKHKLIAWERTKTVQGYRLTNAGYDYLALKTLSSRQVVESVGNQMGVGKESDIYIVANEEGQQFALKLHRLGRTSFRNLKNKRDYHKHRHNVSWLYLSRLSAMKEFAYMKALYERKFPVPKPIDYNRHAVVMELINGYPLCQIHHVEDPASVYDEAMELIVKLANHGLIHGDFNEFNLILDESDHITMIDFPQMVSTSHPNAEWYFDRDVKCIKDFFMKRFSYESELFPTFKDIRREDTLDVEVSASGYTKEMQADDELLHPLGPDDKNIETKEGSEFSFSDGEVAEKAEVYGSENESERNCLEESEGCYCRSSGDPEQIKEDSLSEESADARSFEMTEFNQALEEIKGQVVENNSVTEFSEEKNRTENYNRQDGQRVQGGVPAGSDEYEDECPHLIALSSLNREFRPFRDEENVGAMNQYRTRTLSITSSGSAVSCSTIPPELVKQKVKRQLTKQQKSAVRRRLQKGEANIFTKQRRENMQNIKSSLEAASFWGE

As for `CC(C)c1ccc(O)c(N=Nc2nccs2)c1` [Compound 1], in the data set on AR, the “inhibition of endogenous AR protein” value is on record as “do not inhibit”. For the same compound, the “growth of ERG negative prostate cancer cells” value with LNCaP cells is reported as “do not affect the growth”. In addition, the “inhibition of endogenous RIOK2 protein” value against RIOK2 protein [1] was “inhibition”. Also, on RIOK2 protein [2], the “inhibition of RIOK2 protein in VCaP cells” value is “inhibition”.
For the compound `Cc1ccc(O)c(N=Nc2nccs2)c1` [Compound 2], in the data set on AR, the “inhibition of endogenous AR protein” value is reported as “do not inhibit”. The “growth of ERG negative prostate cancer cells” value in the data set with LNCaP cells is recorded as “do not affect the growth”. Also, on RIOK2 protein [1], the “inhibition of endogenous RIOK2 protein” value is “inhibition”. In addition, the “inhibition of RIOK2 protein in VCaP cells” value at RIOK2 protein [2] is recorded as “inhibition”.
